{
  "source": "patent US20230293530A1",
  "about": "“AGENTS FOR SENSITIZING SOLID TUMORS TO TREATMENT” (Yeda Research and Development Co. Ltd., priority 2020, published 2023)",
  "tested_on": "NSCLC PDX explants with autologous CD8+ T cells",
  "assay": "Co-culture of NSCLC PDX tumor explants with autologous CD8+ T cells, IFNγ ELISA",
  "assay_type": "cell-based, human",
  "source_text": "Two patients bearing metastatic non-small cell lung cancer (NSCLC) were included in this study. Blood samples and fresh tumor tissue samples were procured just after their biopsy with patient consent and with Helsinki approval (number 0093-19-SOR). The samples were placed in serum free DMEM (Gibco) media then processed for implantation in NSG (NOD scid gamma) mice. Tumor tissue samples were implanted subcutaneously in dorsal flanks of the mice to form patient-derived xenografts (PDXs). All animal experiments were done under Institutional Animal Care and Use Committee (IACUC) of Ben-Gurion University of the Negev (BGU’s IACUC) according to specified protocols aiming to ensure animal welfare and reduce su □ ering. The Animal ethical clearance protocol number used for this research is IL-80-12-2015. After isolation of peripheral blood mononuclear cells (PBMCs) from the peripheral blood of the patients according to standard protocol using Lymphocyte Separation Medium (LSM, MP Biomedicals, SKU 0850494-CF), CD8^+ T cells were isolated from PBMCs by employing human CD8 Microbeads (Miltenyi Biotec, 130-045-201), LS column (Miltenyi Biotec, 130-042-401) and MidiMACS Separator (130-042-302) following manufacturer’s protocol. For culturing and maintenance of CD8 T cells, RPMI containing 10% human male AB plasma (Sigma, H4522), 1 mM sodium pyruvate, 2 mM L-glutamine, 0.1 mM MEM non-essential amino acids, 1% penicillin/streptomycin, 10 mM HEPES (Life Technologies), 200 IU/mL recombinant human IL-2 (PeproTech) and 50 ng/mL anti-human CD3 Antibody (BioLegend, 317302) were used for the first 48 hrs followed by culturing and passaging in media containing 200 IU/mL of IL-2.\n2×2×2 mm^3 tumor tissue explants were cut from PDXs with a specific tissue cutter and seeded singly in 48 well flat-bottom plates and incubated with either mizoribine (0.3 mM) in 400 µl of media or with only media for 10 hrs. Then, explants were washed once and transferred into new 48 well flat-bottom plates containing 2×10^5 CD8+T cells/well along with nivolumab (Opdivo, 20 µg/mL), pembrolizumab (Keytruda, 20 µg/mL) or mock solventin fresh 400 µl RPMI containing 20 IU/ml ofIL-2. After 18 hours of incubation, the supernatant was collected from the wells and then assayed for standard IFNγ ELISA assay (ELISA MAX, Biolegend) according to manufacturer’s instructions.\nTwo patients bearing metastatic non-small cell lung cancer (NSCLC) were included in this study. Blood samples and fresh tumor tissue samples were procured just after their biopsy with patient consent and with Helsinki approval (number 0093-19-SOR). The samples were placed in serum free DMEM (Gibco) media then processed for implantation in NSG (NOD scid gamma) mice (NOD.Cg-Prkdcscid Il2rgtm1Wjl, The Jackson Laboratory). Tumor tissue samples were implanted subcutaneously in dorsal flanks of the 7-9 weeks old male mice to form patient-derived xenografts (PDXs).\nAfter isolation of peripheral blood mononuclear cells (PBMCs) from the peripheral blood of the patients according to standard protocol using Lymphocyte Separation Medium (LSM, MP Biomedicals, SKU 0850494-CF), CD8^+ T cells were isolated from PBMCs by employing human CD8 Microbeads (Miltenyi Biotec, 130-045-201), LS column (Miltenyi Biotec, 130-042-401) and MidiMACS Separator (130-042-302) following manufacturer’s protocol. For culturing and maintenance of CD8 T cells, RPMI containing 10% human male AB plasma (Sigma, H4522), 1 mM sodium pyruvate, 2 mM L-glutamine, 0.1 mM MEM non-essential amino acids, 1% penicillin/streptomycin, 10 mM HEPES (Life Technologies), 200 IU/mL recombinant human IL-2 (PeproTech) and 50 ng/mL anti-human CD3 Antibody (BioLegend, 317302) were used for the first 48 hrs followed by culturing and passaging in media containing 200 IU/mL of IL-2.\nPDXs from patients with lung cancer non responsive to anti-PD1 were exposed to no treatment, to mizoribine, or to either EDHB (left panel) or Viagra (right panel). […]",
  "data": [
    {"smiles": "NC(=O)c1ncn([C@@H]2O[C@H](CO)[C@@H](O)[C@H]2O)c1O", "note": "[Mizoribine, mizoribine]", "values": [
      {"measurement": "human IFNγ in supernatant, explant alone", "setting": "PDX explant alone treated with mizoribine 0.3 mM, no T cells", "value": "did not detect human IFNγ"},
      {"measurement": "IFNγ secretion by autologous CD8+ T cells, anti-PD1 plus mizoribine-treated explants", "setting": "explants pre-treated with mizoribine 0.3 mM 10 hrs, nivolumab or pembrolizumab 20 µg/mL, 18 hours", "value": "significant elevation in secretion of IFN-γ"},
      {"measurement": "human IFNγ levels, explant plus autologous CD8+ T cells, no anti-PD1", "setting": "mizoribine-treated explants with autologous CD8+T cells", "value": "did not induce detectable IFNγ levels"}
    ]}
  ]
}
